IC50 data for 33 molecules are collected here from patent publication US4204063A, “N(Aminoalkyl)-naphthalimides and their derivatives” (priority 1977, dated 1980).

Molecules are shown by their SMILES. In brackets after ≈: the same amount, converted by molar mass. Where only a bound is given, the exact number is not on record here.

In the first experiment the test system is He-La cells. The experiment in a line: cytotoxic activity on He-La cells (inhibition of cellular growth, protein determination). It is filed as cell-based. The conditions noted are these: Homo sapiens, HeLa, 72 h, read-out: ID50 (inhibitory dose 50, dose which inhibits cellular growth by 50%). The procedure:
Testing commences using a culture having approximately 125,000 cells per milliliter. They are dispersed with trypsin and are maintained in suspension by stirring until the moment they are placed in tubes.
After 72 hours the results are read.
Take `Nc1cc2c3c(cccc3c1)C(=O)N(CCN1CCCC1)C2=O` [Example 11, N-[2-(1-pyrrolidino)-ethyl]-3-amino-1,8-naphthalimide]: the IC50 was determined as 1.5 µg/mL (≈ 4.85 µM).

Still in this experiment, the particulars now being: Homo sapiens, HeLa; He-La cells, monolayer, 72 hours, protein determination (modified Lowry); read-out: ID50 (inhibitory dose 50, dose which inhibits cellular growth by 50%).
Regarding `CN(C)CCCN1C(=O)c2cccc3cc([N+](=O)[O-])cc(c23)C1=O` [Example 1, N-(3-dimethylaminopropyl)-3-nitro-1,8-naphthalimide], the IC50 turned out to be 1 µg/mL (≈ 3.05 µM).
Consider `CCN(CC)CCCN1C(=O)c2cccc3cc([N+](=O)[O-])cc(c23)C1=O` [Example 2, N-(3-diethylaminopropyl)-3-nitro-1,8-naphthalimide], for which the IC50 turned out to be 5 µg/mL (≈ 14.1 µM).
Consider `O=C1c2cccc3cc([N+](=O)[O-])cc(c23)C(=O)N1CCN1CCOCC1` [Example 3, N-2-(N-morpholino)-ethyl-3-nitro-1,8-naphthalimide], for which the IC50 amounted to 20 µg/mL (≈ 56.3 µM).
As to `CCN1CCCC(N2C(=O)c3cccc4cc([N+](=O)[O-])cc(c34)C2=O)C1` (stereo not drawn) [Example 4, N-3-(1-ethylpiperidino)-3-nitro-1,8-naphthalimide], the IC50 worked out at 6 µg/mL (≈ 17 µM).
In the case of `CN1CCN(CCCN2C(=O)c3cccc4cc([N+](=O)[O-])cc(c34)C2=O)CC1` [Example 5, N-3-(4-methyl-1-piperazino)-propyl-3-nitro-1,8-naphthalimide], the IC50 amounted to 2 µg/mL (≈ 5.23 µM).
The same measure, in the same setting: in the case of `CN(C)N1C(=O)c2cccc3cc([N+](=O)[O-])cc(c23)C1=O` [Example 6, N-dimethylamino-3-nitro-1,8-naphthalimide] it was greater than 100 µg/mL; in that of `O=C1c2cccc3cc([N+](=O)[O-])cc(c23)C(=O)N1N1CCCC1` [Example 7, N-(1-pyrrolidino)-3-nitro-1,8-naphthalimide], greater than 100 µg/mL; in that of `NC(=O)NN1C(=O)c2cccc3cc([N+](=O)[O-])cc(c23)C1=O` [Example 8, N-ureyl-3-nitro-1,8-naphthalimide], greater than 100 µg/mL.
Same read-out and setting: with `CN(C)CCN1C(=O)c2cccc3cc(N)cc(c23)C1=O` [Example 9] the figure was 2.5 µg/mL (≈ 8.82 µM); with `CCN(CC)CCN1C(=O)c2cccc3cc(N)cc(c23)C1=O` [Example 10, N-(2-diethylaminoethyl)-3-amino-1,8-naphthalimide], 3 µg/mL (≈ 9.63 µM); with `Nc1cc2c3c(cccc3c1)C(=O)N(CCN1CCCCC1)C2=O` [Example 12, N-[2-(1-piperidino)-ethyl]-3-amino-1,8-naphthalimide], 8 µg/mL (≈ 24.7 µM).
On the same count and under the same terms, with `Nc1cc2c3c(cccc3c1)C(=O)N(CCN1CCOCC1)C2=O` [Example 13, N-[2-(1-morpholino)-ethyl]-3-amino-1,8-naphthalimide] the figure was 10 µg/mL (≈ 30.7 µM).
For `CN(C)CCCN1C(=O)c2cccc3cc(N)cc(c23)C1=O` [Example 14, N-(3-dimethylaminopropyl)-3-amino-1,8-naphthalimide], the IC50 was 5 µg/mL (≈ 16.8 µM).
Regarding `CCN(CC)CCCN1C(=O)c2cccc3cc(N)cc(c23)C1=O` [Example 15, N-(3-diethylaminopropyl)-3-amino-1,8-naphthalimide], the IC50 amounted to 25 µg/mL (≈ 76.8 µM).
The same measure, in the same setting: in the case of `CN1CCN(CCCN2C(=O)c3cccc4cc(N)cc(c34)C2=O)CC1` [Example 16, N-[3-(4-methyl-1-piperazino)-propyl]-3-amino-1,8-naphthalimide] it was 10 µg/mL (≈ 28.4 µM); in that of `CN(C)N1C(=O)c2cccc3cc(N)cc(c23)C1=O` [Example 17, N-dimethylamino-3-amino-1,8-naphthalimide], 100 µg/mL (≈ 392 µM).
For the molecule `CN(C)CCN1C(=O)c2cccc3cc(Cl)cc(c23)C1=O` [Example 18, N-(2-dimethylaminoethyl)-3-chloro-1,8-naphthalimide], the IC50 is 0.8 µg/mL (≈ 2.64 µM).
On to `O=C1c2cccc3cc(Cl)cc(c23)C(=O)N1CCN1CCCC1` [Example 19, N-[2-(1-pyrrolidino)-ethyl]-3-chloro-1,8-naphthalimide], for which the IC50 came to 1.5 µg/mL (≈ 4.56 µM).
Still for that read-out and setting: in the case of `O=C1c2cccc3cc(Cl)cc(c23)C(=O)N1CCN1CCCCC1` [Example 20, N-[2-(1-piperidino)-ethyl]-3-chloro-1,8-naphthalimide] it was 3.5 µg/mL (≈ 10.2 µM); in that of `O=C1c2cccc3cc(Cl)cc(c23)C(=O)N1CCN1CCOCC1` [Example 21, N-[2-(1-morpholino)-ethyl]-3-chloro-1,8-naphthalimide], 100 µg/mL (≈ 290 µM).
Same read-out and setting: with `CN(C)CCCN1C(=O)c2cccc3cc(Cl)cc(c23)C1=O` [Example 22, N-(3-dimethylaminopropyl)-3-chloro-1,8-naphthalimide] the figure was 2 µg/mL (≈ 6.31 µM); with `CN(C)CCN1C(=O)c2cccc3cc(O)cc(c23)C1=O` [Example 23, N-(2-dimethylaminoethyl)-3-hydroxy-1,8-naphthalimide], 3 µg/mL (≈ 10.6 µM).
The same measure, in the same setting: in the case of `O=C1c2cccc3cc(O)cc(c23)C(=O)N1CCN1CCCC1` [Example 24, N-[2-(1-pyrrolidino)-ethyl]-3-hydroxy-1,8-naphthalimide] it was 3.5 µg/mL (≈ 11.3 µM).
`O=C1c2cccc3cc(O)cc(c23)C(=O)N1CCN1CCOCC1` [Example 25, N-[2-(1-morpholino)-ethyl]-3-hydroxy-1,8-naphthalimide]: the IC50 came out at 100 µg/mL (≈ 306 µM).
The same measure, in the same setting: with `COc1cc2c3c(cccc3c1)C(=O)N(CCN(C)C)C2=O` [Example 26, N-(2-dimethylaminoethyl)-3-methoxy-1,8-naphthalimide] the figure was 1.5 µg/mL (≈ 5.03 µM).
Same read-out and setting: in the case of `COc1cc2c3c(cccc3c1)C(=O)N(CCN1CCCC1)C2=O` [Example 27, N-[2-(1-pyrrolidino)-ethyl]-3-methoxy-1,8-naphthalimide] it was 0.75 µg/mL (≈ 2.31 µM); in that of `CCOC(=O)Nc1cc2c3c(cccc3c1)C(=O)N(CCN(C)C)C2=O` [Example 28, N-(dimethylaminoethyl)-3-ethoxycarbonylamino-1,8-naphthalimide], 10 µg/mL (≈ 28.1 µM).
Same read-out and setting: with `CCOC(=O)Nc1cc2c3c(cccc3c1)C(=O)N(CCN1CCCC1)C2=O` [Example 29, N-[2-(1-pyrrolidino)-ethyl]-3-ethoxycarbonylamino-1,8-naphthalimide] the figure was 10 µg/mL (≈ 26.2 µM); with `CC(=O)Nc1cc2c3c(cccc3c1)C(=O)N(CCN(C)C)C2=O` [Example 30, N-(2-dimethylaminoethyl)-3-acetylamino-1,8-naphthalimide], 4 µg/mL (≈ 12.3 µM).
As to `CC(=O)Nc1cc2c3c(cccc3c1)C(=O)N(CCN1CCCC1)C2=O` [Example 31, N-[2-(1-pyrrolidino)-ethyl]-3-acetylamino-1,8-naphthalimide], the IC50 turned out to be 5 µg/mL (≈ 14.2 µM).
On the same count and under the same terms, in the case of `O=C1c2cccc3cc(S(=O)(=O)O)cc(c23)C(=O)N1CCN1CCCC1` [Example 32, N-[2-(1-pyrrolidino)ethyl]-3-sulfo-1,8-naphthalimide] it was greater than 100 µg/mL; in that of `CN(C)CCN1C(=O)c2cccc3cc(C(C)(C)C)cc(c23)C1=O` [Example 33, N-(2-dimethylaminoethyl)-3-tert-butyl-1,8-naphthalimide], 14 µg/mL (≈ 43.2 µM).
